From US11806359B2 (priority 2020, dated 2023) come the findings set out here.

The subject of one data set is Marburgvirus (MARV/Ci67). Format: cell-based. The conditions noted are these: based on the oleandrin content; final concentration of compositions 20 microg/mL.
For another data set, the system named is HTLV-1. Description: HTLV-1 replication and p19Gag particle release from SLB1 cells, Anti-HTLV-1 p19Gag ELISA. The conditions noted are these: SLB1 cells, 10, 50, 100 μg/ml, 72 hrs. Type of data set: cell-based, human T-cell leukemia virus type-1. A general note: An ELISA detects its analyte on a solid surface through an enzyme-linked reagent.
A further data set relates to huPBMCs. As to the kind of experiment: Cytotoxicity/apoptosis in primary huPBMCs, Annexin V-FITC/PI staining. The conditions noted are these: compared to the vehicle control, 72 hrs. Type of data set: cell-based, human. Here is the method:
Primary buffy-coat huPBMCs were isolated and stimulated with phytohemagglutinin (PHA) and cultured in the presence of recombinant human interleukin-2 (hIL-2). The cells were then treated for 72 hrs with increasing concentrations of oleandrin or a N. oleander extract, or with increasing volumes of the Vehicle. The samples were subsequently stained with Annexin V-FITC and PI and the relative percentages of apoptotic (i.e., Annexin V-FITC and/or PI-positive) cells per field were quantified by confocal fluorescence-microscopy and counting in-triplicate.
Cytotoxic effects of the Vehicle control, N. oleander extract, and the oleandrin compound were assessed by treating primary huPBMCs for 72 hrs, and then the cultures were stained with Annexin V-FITC and PI. The relative percentages of apoptotic (i.e., Annexin V-FITC and/or PI-positive) cells were quantified by fluorescence-microscopy and counting triplicate visual fields using a 20× objective lens. The total numbers of cells were determined using DIC phase-contrast microscopy. Cyclophosphamide (50 μM)-treated cells were included as a positive control for apoptosis. NA indicates the number of cells in this sample was too low for accurate assessment due to higher toxicity. […]

In data set [1] the test system is SARS-CoV-2. Description: SARS-CoV-2 viral titer and infectivity of progeny virions in Vero cells (Example 28). Type of data set: cell-based. The conditions noted are these: for reduction in virus load: oleandrin pretreatment. Here is the method:
Further proof of the efficacy of oleandrin (oleandrin-containing composition) against coronavirus, e.g. SARS-CoV-2 (COVID-19), was obtained through in vitro evaluation according to Example 28, wherein Vero cells were pretreated with oleandrin and then infected with SARS-CoV-2. Following infection of the cells, the extracellular virus and oleandrin was washed away, and the infected cells were then treated with oleandrin (FIG. 23A: 1 microg/mL in 0.1% v/v aqueous DMSO; FIG. 23C: 0.1 microg/mL in 0.01% v/v aqueous DMSO) or just aqueous DMSO as control vehicle (FIG. 23B: 0.1% v/v aqueous DMSO; FIG. 23D: 0.01% v/v aqueous DMSO). […] The results further indicate that oleandrin inhibits infectivity of progeny virus by a) about 1 log10 without continuous drug treatment; and b) about >3 log10 with continuous drug treatments (without toxicity).
A stock solution of oleandrin in methanol (10 mg oleandrin/mL) was prepared. The stock solution was used to prepare incubation media containing DMSO (0.1% or 0.01% v/v in aqueous culture medium RPMI 1640 and oleandrin (20 microg/mL, 10 microg/mL, 1.0 microg/mL, or 0.1 microg/mL). The incubation solutions are as follows.
Uninfected Vero cells (target initial cell count 1×10^6) in culture were incubated in each of the indicated incubation media in vials for 30 min at 37° C. A viral inoculate of SARS-CoV-2 was then added to each vial to achieve a target initial viral titer (about PFU/mL 1×10^4). The target MOI (multiplicity of infection) of about 0.1. The solutions were incubated for an additional 2 h at 37° C. to achieve infection of the Vero cells. The infected Vero cells were then washed with control vehicle to remove extracellular virus and oleandrin. New aliquots of each incubation medium were added to each respective vial of infected Vero cells. Those receiving oleandrin in the second aliquot were denoted as “+ treatment Post-infection”, and those not receiving oleandrin in the second aliquot were denoted as “− treatment Post-infection” (FIGS. 23A-23D). The viral titer for each vial was determined at about 24 h and about 48 h after infection.
The data acquired included quantity of virus produced, infectivity of progeny virus, and relative safety (nontoxicity) of oleandrin in infected and uninfected cells.

Data set [2] relates to SARS-CoV-2. Description: SARS-CoV-2 treatment post-infection in VERO CCL-81 cells, viral titer (Example 34). Format: cell-based. The note with it: treated at 12 h and 24 h post-infection, no pretreatment.

With `CO[C@H]1C[C@H](O[C@H]2CC[C@@]3(C)[C@H](CC[C@@H]4[C@@H]3CC[C@]3(C)[C@@H](C5=CC(=O)OC5)[C@@H](OC(C)=O)C[C@]43O)C2)O[C@@H](C)[C@@H]1O` [oleandrin], in the data set on Marburgvirus (MARV/Ci67), the “efficacy against Marburgvirus” value is “efficacious”. In the data set with HTLV-1, the “HTLV-1 replication or release of p19Gag-containing virus particles” value was “does not significantly inhibit”. Also, the “cytotoxicity in huPBMCs” value in the data set on huPBMCs is “moderate cytotoxicity”. Moreover, in the data set on SARS-CoV-2 [1] (just 30 min preincubation of Vero cells), the “reduction of initial viral infection” value is “only slightly effective”. Moreover, the “reduction in virus load” value with SARS-CoV-2 [1] (24-h time) is 1368 fold; in the data set on SARS-CoV-2 [1] (48-h time point), 369 fold. The “inhibition of infectivity of progeny virus” value in the data set on SARS-CoV-2 [1] (with continuous drug treatments (without toxicity)) is > 3 log10; with SARS-CoV-2 [1] (without continuous drug treatment), “about 1 log10”. In addition, in the data set with SARS-CoV-2 [2], the “antiviral activity post infection with a single treatment” value is given as “able to exert antiviral activity”.
